According to US10160747B2, “Compounds and methods for kinase modulation, and indications therefor” (Plexxikon Inc., priority 2016, dated 2018):

Legend:
c-KIT = target: T1, c-KIT (Homo sapiens, UniProt P10721); experiment: c-KIT recombinant enzyme kinase assay (AlphaScreen); type: biochemical; conditions: 100 ATP, 8 pt
T1 construct: purchased Millipore 14-559K
Procedure, shortened: (§1)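 AlphaScreen proximity signal at 580 nm, from PY20 acceptor and streptavidin donor beads, measures tyrosine phosphorylation of 30 nM biotin-poly(Glu4-Tyr) peptide by recombinant kinase. ATP: 10 μM (FLT3 mutants), 100 μM (c-KIT). IC50 from loss of signal.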

FLT3-ITD = target: T2, FLT3-ITD (Homo sapiens, UniProt P36888); experiment: FLT3-ITD recombinant enzyme kinase assay (AlphaScreen); type: biochemical; conditions: 8 pt; read-out: FLT3_ITD 8 pt: IC50
T2 sequence (P36888 1-993): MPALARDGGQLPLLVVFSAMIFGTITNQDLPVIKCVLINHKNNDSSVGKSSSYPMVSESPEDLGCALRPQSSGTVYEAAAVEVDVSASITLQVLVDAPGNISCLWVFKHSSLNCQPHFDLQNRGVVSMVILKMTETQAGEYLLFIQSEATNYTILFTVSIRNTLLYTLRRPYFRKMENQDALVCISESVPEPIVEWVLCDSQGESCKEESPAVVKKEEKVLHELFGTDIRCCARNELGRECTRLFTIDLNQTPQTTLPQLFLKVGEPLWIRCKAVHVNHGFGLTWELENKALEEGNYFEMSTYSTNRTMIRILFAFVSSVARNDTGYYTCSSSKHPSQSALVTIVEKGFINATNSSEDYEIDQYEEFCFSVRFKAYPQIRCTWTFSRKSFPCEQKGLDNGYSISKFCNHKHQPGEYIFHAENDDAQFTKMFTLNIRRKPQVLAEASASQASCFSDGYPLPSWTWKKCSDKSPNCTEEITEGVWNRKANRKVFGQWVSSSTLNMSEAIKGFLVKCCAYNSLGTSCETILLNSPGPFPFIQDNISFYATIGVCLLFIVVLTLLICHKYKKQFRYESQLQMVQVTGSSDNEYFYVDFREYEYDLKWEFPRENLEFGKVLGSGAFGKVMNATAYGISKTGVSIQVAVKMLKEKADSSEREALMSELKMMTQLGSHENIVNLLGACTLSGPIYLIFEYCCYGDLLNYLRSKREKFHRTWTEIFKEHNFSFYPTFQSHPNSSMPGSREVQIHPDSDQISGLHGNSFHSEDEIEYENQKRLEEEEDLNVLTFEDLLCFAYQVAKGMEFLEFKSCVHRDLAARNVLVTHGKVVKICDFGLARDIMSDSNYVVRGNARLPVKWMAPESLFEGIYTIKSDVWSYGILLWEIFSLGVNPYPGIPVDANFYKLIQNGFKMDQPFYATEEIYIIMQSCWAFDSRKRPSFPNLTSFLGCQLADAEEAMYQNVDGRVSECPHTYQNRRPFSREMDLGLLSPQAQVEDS
Procedure, shortened: as §1

T1 sequence (P10721 26-976): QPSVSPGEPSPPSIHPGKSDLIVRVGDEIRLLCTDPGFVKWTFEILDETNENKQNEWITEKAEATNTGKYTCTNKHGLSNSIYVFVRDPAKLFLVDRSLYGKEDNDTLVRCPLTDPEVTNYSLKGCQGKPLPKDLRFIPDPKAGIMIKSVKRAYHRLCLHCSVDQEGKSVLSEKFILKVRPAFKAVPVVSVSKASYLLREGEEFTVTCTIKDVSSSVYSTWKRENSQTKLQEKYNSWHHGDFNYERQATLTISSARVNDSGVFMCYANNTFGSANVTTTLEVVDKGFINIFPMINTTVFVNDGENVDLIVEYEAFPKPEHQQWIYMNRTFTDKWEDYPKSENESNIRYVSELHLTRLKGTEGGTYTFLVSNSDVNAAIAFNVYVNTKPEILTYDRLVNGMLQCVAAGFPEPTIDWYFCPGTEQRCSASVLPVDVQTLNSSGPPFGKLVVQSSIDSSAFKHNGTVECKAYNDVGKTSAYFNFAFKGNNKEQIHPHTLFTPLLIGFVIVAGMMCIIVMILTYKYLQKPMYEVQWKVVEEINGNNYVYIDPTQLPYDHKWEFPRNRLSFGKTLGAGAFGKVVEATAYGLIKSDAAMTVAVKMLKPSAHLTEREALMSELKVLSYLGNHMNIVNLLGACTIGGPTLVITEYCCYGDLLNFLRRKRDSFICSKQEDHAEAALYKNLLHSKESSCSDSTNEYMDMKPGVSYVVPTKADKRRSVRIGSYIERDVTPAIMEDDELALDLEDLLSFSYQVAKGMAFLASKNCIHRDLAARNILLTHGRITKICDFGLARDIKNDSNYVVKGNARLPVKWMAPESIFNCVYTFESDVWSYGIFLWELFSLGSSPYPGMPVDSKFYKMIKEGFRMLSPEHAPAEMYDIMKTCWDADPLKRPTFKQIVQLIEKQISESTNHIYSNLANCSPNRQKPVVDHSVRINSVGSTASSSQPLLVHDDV

IC50 (c-KIT) [µM]	IC50 (FLT3-ITD) [µM]	SMILES
0.0001 to 10	0.0001 to 10	COc1ncc(NC(=O)Cc2ccc(-c3cnc4[nH]nc(N)c4c3)cc2)cc1C(F)(F)F [Compound P-0216, 2-(4-(3-amino-1H-pyrazolo[3,4-b]pyridin-5-yl)phenyl)-N-(6-methoxy-5-(trifluoromethyl)pyridin-3-yl)acetamide]
0.0001 to 10	0.0001 to 10	O=C(Cc1ccc(-c2cnc(Nc3cnn(C4CC4)c3)nc2)cc1)Nc1cc(C(F)(F)F)ccn1 [Compound P-0237, 2-[4-[2-[(1-cyclopropylpyrazol-4-yl)amino]pyrimidin-5-yl]phenyl]-N-[4-(trifluoromethyl)-2-pyridyl]acetamide]
0.0001 to 10	0.0001 to 10	O=C(Cc1ccc(-c2cnc(Nc3cnn(C4CC4)c3)nc2)cc1F)Nc1ccc(C(F)(F)F)cn1 [Compound P-0243, 2-[4-[2-[(1-cyclopropylpyrazol-4-yl)amino]pyrimidin-5-yl]-2-fluoro-phenyl]-N-[5-(trifluoromethyl)-2-pyridyl]acetamide]
0.0001 to 10	0.0001 to 10	CCOc1n[nH]c2ncc(-c3ccc(CC(=O)Nc4cnc(C)c(C(F)(F)F)c4)cc3)cc12 [Compound P-0217, 2-[4-(3-ethoxy-1H-pyrazolo[3,4-b]pyridin-5-yl)phenyl]-N-[6-methyl-5-(trifluoromethyl)-3-pyridyl]acetamide]
